Source: patent publication US12303845B2, “Method for crystallization of active pharmaceutical ingredients” (Nanoform Finland Oyj, priority 2023, dated 2025)

Key:
Assay type in all cases: physicochemical
[1] = SEM of crystallized suspensions and dried products (crystal size grade, particle size); parameters: key: 5 = nanocrystals; 1 = large crystals
Description: SEM images were captured using the Zeiss Sigma 300 VP SEM instruments. Samples were dispersed into water and filtered with 0.1 μm filter. Filters were dried, transferred to SEM sample holders, and coated with a 5 nm thick layer of platinum. Amorphous API nanoparticles (budesonide, ezetimibe, ceritinib, and apalutamide) were added as dry powders to aqueous polymer solutions. The mixtures were either • (i) mixed with a magnetic stirrer and ultrasonicated until API was completely surrounded by water (wetted). The stirring was continued for 16-24 h at ambient temperature or • (ii) blended with a metal spatula and allowed to stay at room temperature for 18-24 h. The suspensions formed were analyzed after 18-24 h. SEM and XRD samples were prepared as described above. Suspension comprising nanosized APIs prepared as shown above were dried in a vacuum desiccator overnight. The solid materials were grounded to produce powders. The powders were analyzed on XRD and SEM. The powders comprising nanosized APIs were used in the stability, permeability, and dissolution tests as described above.

[2] = Crystallization of amorphous nanosized API in aqueous polymer solution, polymorph/crystallinity by XRD; parameters: key to Polymorph: bulk = same as the API before conversion to amorphous nanoparticles
Description: XRPD measurements were carried out using the Malvern PANalytical Empyrean X-ray diffractometer equipped with a Cu Kα (1.54 Å) source, MultiCore optics and a solid-state PIXcel3D detector. By using Kapton tape the samples were attached onto aluminum or polycrystalline silicon sample holders. Dried slurries were measured without further sample preparation under Kapton tape and suspensions were filtered, dried, and filters were attached with double sided tape. The samples were measured in the reflection geometry in a spinning measurement stage. The measurement range was 5-40 (°2θ). The step size and time per step values were varied depending on the counts per second obtained.
Determination of crystallization of API nanoparticles was evaluated via kinetic study of suspension. Accordingly, XRD measurement was done for suspension in different time points.
Amorphous API nanoparticles (budesonide, ezetimibe, ceritinib, and apalutamide) were added as dry powders to aqueous polymer solutions. The mixtures were either • (i) mixed with a magnetic stirrer and ultrasonicated until API was completely surrounded by water (wetted). The stirring was continued for 16-24 h at ambient temperature or • (ii) blended with a metal spatula and allowed to stay at room temperature for 18-24 h.
The suspensions formed were analyzed after 18-24 h. SEM and XRD samples were prepared as described above.

[3] = Stability tests of solid material (SEM, XRD, HPLC); details: materials prepared according to the disclosure; up to T30; crystallinity confirmed by XRD
Description: Solid material was weighted in separate vials (approx. 150 mg of material in each) and transferred to stability chambers. Three conditions were applied: ambient conditions (material in closed vial at RT), 25° C./65% RH and 40° C./75% RH. Material was analyzed at T0 as freshly prepared, T7 ([…]), T14 ([…]) and T30 (30 d) after the initiation of stability studies. SEM, XRD and dissolution/permeability studies were used to evaluate the crystallinity, particle size/morphology and performance of the material.

[4] = HPMC 1 wt.-%, SLS 0.2 wt.-%, mAPI 25 mg/g
[5] = HPMC 1 wt.-%, no SLS, mAPI 25 mg/g
[6] = HPMC 2.5 wt.-%, SLS 0.2 wt.-%, mAPI 25 mg/g
[7] = HPMC 2.5 wt.-%, no SLS, mAPI 25 mg/g
[8] = HPMC 5 wt.-%, SLS 0.2 wt.-%, mAPI 25 mg/g
[9] = HPMC 5 wt.-%, SLS 0.2 wt.-%, mAPI 100 mg/g
[10] = HPMC 5 wt.-%, SLS 0.2 wt.-%, mAPI 150 mg/g
[11] = HPMC 5 wt.-%, no SLS, mAPI 25 mg/g
[12] = HPMC 5 wt.-%, no SLS, mAPI 100 mg/g
[13] = HPMC 5 wt.-%, no SLS, mAPI 150 mg/g
[14] = PVP K30 1 wt.-%, no SLS, mAPI 25 mg/g
[15] = PVP K30 2.5 wt.-%, no SLS, mAPI 25 mg/g
[16] = PVP K30 5 wt.-%, no SLS, mAPI 25 mg/g
[17] = PVPVA 1 wt.-%, SLS 0.2 wt.-%, mAPI 25 mg/g
[18] = PVPVA 1 wt.-%, no SLS, mAPI 25 mg/g polymer solution
[19] = PVPVA 2.5 wt.-%, SLS 0.2 wt.-%, mAPI 25 mg/g
[20] = PVPVA 2.5 wt.-%, no SLS, mAPI 25 mg/g
[21] = PVPVA 5 wt.-%, SLS 0.2 wt.-%, mAPI 25 mg/g
[22] = PVPVA 5 wt.-%, no SLS, mAPI 25 mg/g
[23] = PVPVA 15 wt.-%, SLS 0.2 wt.-%, mAPI 150 mg/g
[24] = PVPVA 15 wt.-%, no SLS, mAPI 150 mg/g
[25] = PVPVA 20 wt.-%, no SLS, mAPI 200 mg/g
[26] = PVPVA 25 wt.-%, SLS 0.2 wt.-%, mAPI 250 mg/g
[27] = PVPVA 25 wt.-%, no SLS, mAPI 250 mg/g
[28] = PVPVA 45 wt.-%, no SLS, mAPI 450 mg/g
[29] = Poloxamer 407 1 wt.-%, no SLS, mAPI 25 mg/g
[30] = Poloxamer 407 2.5 wt.-%, no SLS, mAPI 25 mg/g
[31] = Poloxamer 407 5 wt.-%, no SLS, mAPI 25 mg/g

Structure (SMILES): CCCC1O[C@@H]2C[C@H]3[C@@H]4CCC5=CC(=O)C=C[C@]5(C)[C@H]4[C@@H](O)C[C@]3(C)[C@]2(C(=O)CO)O1 (stereo partly drawn) [Bude, budesonide]
- Grade (SEM, visual inspection) [1, 4]: 5
- Grade (SEM, visual inspection) [1, 5]: 5
- Grade (SEM, visual inspection) [1, 6]: 5
- Grade (SEM, visual inspection) [1, 7]: 5
- Grade (SEM, visual inspection) [1, 8]: 5
- Grade (SEM, visual inspection) [1, 9]: 5
- Grade (SEM, visual inspection) [1, 10]: 5
- Grade (SEM, visual inspection) [1, 11]: 5
- Grade (SEM, visual inspection) [1, 12]: 5
- Grade (SEM, visual inspection) [1, 13]: 5
- Grade (SEM, visual inspection) [1, 14]: 3
- Grade (SEM, visual inspection) [1, 15]: 3
- Grade (SEM, visual inspection) [1, 16]: 3
- Grade (SEM, visual inspection) [1, 17]: 4
- Grade (SEM, visual inspection) [1, 18]: 3
- Grade (SEM, visual inspection) [1, 19]: 4
- Grade (SEM, visual inspection) [1, 20]: 2
- Grade (SEM, visual inspection) [1, 21]: 4
- Grade (SEM, visual inspection) [1, 22]: 2
- Grade (SEM, visual inspection) [1, 23]: 5
- Grade (SEM, visual inspection) [1, 24]: 5
- Grade (SEM, visual inspection) [1, 25]: 5
- Grade (SEM, visual inspection) [1, 26]: 5
- Grade (SEM, visual inspection) [1, 27]: 5
- Grade (SEM, visual inspection) [1, 28]: 5
- Grade (SEM, visual inspection) [1, 29]: 1
- Grade (SEM, visual inspection) [1, 30]: 1
- Grade (SEM, visual inspection) [1, 31]: 1
- Polymorph [2, 4]: bulk
- Polymorph [2, 5]: bulk
- Polymorph [2, 6]: bulk
- Polymorph [2, 7]: bulk
- Polymorph [2, 8]: bulk
- Polymorph [2, 9]: bulk
- Polymorph [2, 10]: bulk
- Polymorph [2, 11]: bulk
- Polymorph [2, 12]: bulk
- Polymorph [2, 13]: bulk
- Polymorph [2, 14]: bulk
- Polymorph [2, 15]: bulk
- Polymorph [2, 16]: bulk
- Polymorph [2, 17]: bulk
- Polymorph [2, 18]: bulk
- Polymorph [2, 19]: bulk
- Polymorph [2, 20]: bulk
- Polymorph [2, 21]: bulk
- Polymorph [2, 22]: bulk
- Polymorph [2, 23]: bulk
- Polymorph [2, 24]: bulk
- Polymorph [2, 25]: bulk
- Polymorph [2, 26]: bulk
- Polymorph [2, 27]: bulk
- Polymorph [2, 28]: bulk
- Polymorph [2, 29]: bulk
- Polymorph [2, 30]: buik
- Polymorph [2, 31]: bulk
- Stability of nanocrystalline material over the stability study [3]: stable over the whole stability study
